{
  "source": "paper PMC8950706",
  "about": "“Influence of Substitutions in the Binding Motif of Proline-Rich Antimicrobial Peptide ARV-1502 on 70S Ribosome Binding and Antimicrobial Activity” (International Journal of Molecular Sciences, 2022)",
  "system": "E. coli 70S ribosome",
  "assay": "Competitive fluorescence polarization assay against Cf-Onc112 (Ki)",
  "format": "binding",
  "details": "Supplementary Figure S3; read-out: Ki as competitor of Cf-Onc112",
  "description": "Dissociation and inhibitory constants were determined in black 384-well-plates (Greiner Bio-One GmbH, Frickenhausen, Germany) blocked with 0.5% (w/v) casein in phosphate buffered saline (PBS, 8.8 mmol/L Na2HPO4×12 H2O, 1.2 mmol/L KH2PO4, 0.3 mol/L NaCl, pH 7.4) containing 0.05% (w/v) Tween® 20 (PBST) overnight at 4 °C and washed three times with PBST.\nRibosome solution was added (10 µmol/L) and the plate was incubated after centrifugation (2 min, 500× g, Rotor S2096, Allegra^TM 21R, Beckmann Coulter) at 28 °C for 90 min. Cf-labeled peptide was added (10 µL; final concentration of 20 nmol/L; final ribosome concentration of 0.5 µmol/L) and the plate was centrifuged and incubated again (90 min, 28 °C, dark). Fluorescence polarization was recorded (λex = 485 nm, λem = 535 nm) on a […]^TM microplate reader. Kd and IC50 values were calculated by fitting the data with a variable slope parameter [y = min + (max − min)/(1 + (x/Kd) ^−Hill slope) ] using SigmaPlot 13 (Systat Software Inc., San Jose, CA, USA). The obtained IC50 values were used to calculate the Ki values.",
  "note": "Square brackets hold non-standard residues; d marks the D form. Peptide text beside a SMILES is read from it. Ac6c = NC1(C(=O)O)CCCCC1",
  "data": [
    {"smiles": "CC(C)C[C@H](NC(=O)[C@H](Cc1ccc(O)cc1)NC(=O)[C@@H]1CCCN1C(=O)[C@H](CCCNC(=N)N)NC(=O)[C@@H]1CCCN1C(=O)[C@H](CCCCN)NC(=O)[C@H](CC(=O)O)NC(=O)[C@@H]1CCCN1C(=O)[C@H](CCCNC(=N)N)NC(=O)C1(N)CCCCC1)C(=O)N1CCC[C@H]1C(=O)N[C@@H](CCCNC(=N)N)C(=O)N1CCC[C@H]1C(=O)N[C@@H](CCCNC(=N)N)C(=O)N1CCC[C@H]1C(=O)N1CCC[C@H]1C(=O)N[C@@H](CCCNC(=N)N)C(=O)N1CCC[C@H]1C(=O)N[C@H](C(=O)N[C@@H](CCCNC(=N)N)C(N)=O)C(C)C", "note": "[ARV-1502] (H-[Ac6c]RPDKPRPYLPRPRPPRPVR-NH2)", "values": [
      {"measurement": "Ki", "value": 0.12, "unit": "µM"}
    ]}
  ]
}
